This passage reports inhibition results from patent publication US9643957B2, “Heterocyclic compounds having cholesterol 24-hydroxylase activity” (TAKEDA PHARMACEUTICAL COMPANY LIMITED, priority 2012, dated 2017).

Each structure is given as a SMILES string.

The target in this test is T1, human CH24H (Homo sapiens, UniProt Q9Y6A2).
T1 construct: Using Full-Length Mammalian Gene Collection No. 4819975 (Invitrogen) as a template; made in house; host or cells: FreeStyle 293-F cells, transient transfection with pcDNA3.1(+)/hCH24H; lysate supernatant, not purified
T1 sequence (Q9Y6A2 whole entry): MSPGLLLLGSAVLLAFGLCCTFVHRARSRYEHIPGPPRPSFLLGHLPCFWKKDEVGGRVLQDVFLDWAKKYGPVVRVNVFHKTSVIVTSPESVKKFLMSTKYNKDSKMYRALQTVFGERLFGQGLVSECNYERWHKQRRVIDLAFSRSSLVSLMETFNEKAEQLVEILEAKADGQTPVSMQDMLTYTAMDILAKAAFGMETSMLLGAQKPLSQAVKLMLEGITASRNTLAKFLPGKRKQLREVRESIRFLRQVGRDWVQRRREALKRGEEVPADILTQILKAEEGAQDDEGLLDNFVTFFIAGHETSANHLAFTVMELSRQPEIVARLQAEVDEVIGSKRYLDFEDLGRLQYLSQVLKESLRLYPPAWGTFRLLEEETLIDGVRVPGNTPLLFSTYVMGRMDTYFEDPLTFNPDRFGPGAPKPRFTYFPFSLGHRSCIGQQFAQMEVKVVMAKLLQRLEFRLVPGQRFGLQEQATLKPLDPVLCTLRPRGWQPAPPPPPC
The test is described as follows: Measurement of CH24H inhibitory activity (24-HC produced from [14C] cholesterol by human CH24H lysate). The class given is biochemical. As to conditions: 1 μM test compound, [14C] cholesterol 15 μM, 37° C. for 5 hr, read-out: Inhibitory Rate in 1 μM (%). The method, then: The expression of human CH24H was performed using FreeStyle 293 Expression System (Invitrogen). […] After transfection, the cells were cultured at 37° C., 8% CO2 with shaking at 125 rpm for 2 days. The cells were collected by centrifugation, and suspended in a suspension buffer (100 mM potassium phosphate (pH 7.4), 0.1 mM EDTA, 1 mM DTT, 20% Glycerol). The suspended product was disrupted by a polytron homogenizer (manufactured by Kinematica), and centrifuged at 9000×g for 10 min, and the supernatant was collected. The collected supernatant was cryopreserved (−80° C.) as a human CH24H lysate standard product.
For the measurement of CH24H inhibitory activity, using the human CH24H lysate prepared in Experimental Example 2, the amount of 24-HC produced from cholesterol by catalytic activity of CH24H was measured in the presence of a test compound, and compared with that measured in the absence of the test compound. That is, a test compound solution at various concentrations was mixed with a reaction buffer (50 mM potassium phosphate containing 0.1% BSA and Complete, EDTA-free, pH 7.4) and human CH24H lysate. Then, [^14C] cholesterol (53 mCi/mmol specific activity, 15 μM) was added, and CH24H reaction was performed at 37° C. for 5 hr. After completion of the reaction, a quenching solution consisting of chloroform/methanol/distilled water (2:2:1 v/v) was added, and the resulting 24-HC was extracted by shaking. The extract was applied to silica gel thin layer chromatography (ethyl acetate:toluene=4:6), and the obtained ^14C-24HC fraction was measured with BAS2500 (Fujifilm Corporation).
The inhibitory rate (%) was calculated from the ratio of radioactivity in the presence of a test compound relative to the radioactivity in the absence of the test compound.
Consider `O=C(C1CCN(c2cnccc2-n2cc(Cl)cn2)CC1)N1CCS(=O)(=O)CC1` [Example 30, (1-(4-(4-chloro-1H-pyrazol-1-yl)pyridin-3-yl)piperidin-4-yl)(1,1-dioxidothiomorpholin-4-yl)methanone], for which the inhibition at 1 µM amounted to 97%.
To `Cc1cnc(-c2ccncc2N2CCC(C(=O)N(C)C)CC2)o1` [Example 2, N,N-dimethyl-1-(4-(5-methyl-1,3-oxazol-2-yl)pyridin-3-yl)piperidine-4-carboxamide] belongs 80%; to `CC1(CNC(=O)C2CCN(c3cnccc3-n3cc(Cl)cn3)CC2)COC1` [Example 31, 1-(4-(4-chloro-1H-pyrazol-1-yl)pyridin-3-yl)-N-((3-methyloxetan-3-yl)methyl)piperidine-4-carboxamide], 97%.
To `O=C(N1CCN(c2cncnc2-c2ccccc2)CC1)N(CCF)Cc1ccccc1` [Example 314, N-benzyl-N-(2-fluoroethyl)-4-(4-phenylpyrimidin-5-yl)piperazine-1-carboxamide] belongs 91%; to `CN(C(=O)C1CCN(c2cnccc2-n2cc(Cl)cn2)CC1)[C@@H]1CCOC1` [Example 308, 1-(4-(4-chloro-1H-pyrazol-1-yl)pyridin-3-yl)-N-methyl-N-((3R)-tetrahydrofuran-3-yl)piperidine-4-carboxamide], 83%; to `C[C@@H]1CN(c2cncnc2-c2ccccc2)CCN1C(=O)OCc1ccccc1` [Example 158, benzyl (2R)-2-methyl-4-(4-phenylpyrimidin-5-yl)piperazine-1-carboxylate], 85%.
The value for `CO[C@@H]1C[C@H](C#N)N(C(=O)C2CCN(c3cnccc3-n3cc(C)cn3)CC2)C1` [Example 138, (2R,4R)-4-methoxy-1-((1-(4-(4-methyl-1H-pyrazol-1-yl)pyridin-3-yl)piperidin-4-yl)carbonyl)pyrrolidine-2-carbonitrile] was 93%.
Take `CO[C@@H]1CCN(C(=O)C2CCN(c3cncnc3-c3ccc(F)cc3)CC2)C1` [Example 304, (1-(4-(4-fluorophenyl)pyrimidin-5-yl)piperidin-4-yl)((3R)-3-methoxypyrrolidin-1-yl)methanone]: the inhibition at 1 µM is 86%.
To `O=C(C1CCN(c2cncnc2-c2ccc(F)cc2)CC1)N1CC[C@@H](F)C1` [Example 287, (1-(4-(4-fluorophenyl)pyrimidin-5-yl)piperidin-4-yl)((3R)-3-fluoropyrrolidin-1-yl)methanone] belongs 89%; to `Cc1cnc(-c2ccncc2N2CCC(C(=O)N3CC(F)C3)CC2)s1` [Example 317, (3-fluoroazetidin-1-yl) (1-(4-(5-methyl-1,3-thiazol-2-yl)pyridin-3-yl)piperidin-4-yl)methanone], 95%.
As for `Cc1cnn(-c2ccncc2N2CCC(C(=O)N3CC[C@@H](F)C3)CC2)c1` [Example 283, ((3R)-3-fluoropyrrolidin-1-yl)(1-(4-(4-methyl-1H-pyrazol-1-yl)pyridin-3-yl)piperidin-4-yl)methanone], the inhibition at 1 µM came out at 85%.
For the molecule `CO[C@H]1CCN(C(=O)C2CCN(c3cnccc3-n3cc(Cl)cn3)CC2)C1` [Example 299, (1-(4-(4-chloro-1H-pyrazol-1-yl)pyridin-3-yl)piperidin-4-yl)((3S)-3-methoxypyrrolidin-1-yl)methanone], the inhibition at 1 µM was found to be 84%.
For the molecule `C[C@H]1CN(c2cncnc2-c2ccccc2)CCN1C(=O)CC1CC1` [Example 170, 2-cyclopropyl-1-((2S)-2-methyl-4-(4-phenylpyrimidin-5-yl)piperazin-1-yl)ethanone], the inhibition at 1 µM stood at 86%.
To `CO[C@H]1CCN(C(=O)C2CCN(c3cnccc3-n3cc(C)cn3)CC2)C1` [Example 301, ((3S)-3-methoxypyrrolidin-1-yl)(1-(4-(4-methyl-1H-pyrazol-1-yl)pyridin-3-yl)piperidin-4-yl)methanone] belongs 86%; to `CN(C(=O)C1CCN(c2cncnc2-c2ccc(F)cc2)CC1)[C@@H]1CCOC1` [Example 310, 1-(4-(4-fluorophenyl)pyrimidin-5-yl)-N-methyl-N-((3R)-tetrahydrofuran-3-yl)piperidine-4-carboxamide], 82%; to `O=C(CC1CC1)N1C[C@@H]2C[C@H]1CN2c1cnccc1-c1ccccc1` [Example 161, 2-cyclopropyl-1-((1S,4S)-5-(4-phenylpyridin-3-yl)-2,5-diazabicyclo[2.2.1]hept-2-yl) ethanone], 56%.
The value for `Cc1nnc(-c2ccncc2N2CCC(C(=O)N3CCC[C@]3(C)C#N)CC2)s1` [Example 128, (2R)-2-methyl-1-((1-(4-(5-methyl-1,3,4-thiadiazol-2-yl)pyridin-3-yl)piperidin-4-yl)carbonyl)pyrrolidine-2-carbonitrile] was 97%; that for `CN(C)C(=O)C1CCN(c2cnccc2-c2nc3ccccc3s2)CC1` [Example 21, 1-(4-(1,3-benzothiazol-2-yl)pyridin-3-yl)-N,N-dimethylpiperidine-4-carboxamide] was 85%; that for `Cc1cnn(-c2ccncc2N2CCC(C(=O)N3CCC[C@H]3C(N)=O)CC2)c1` [Example 114, 1-((1-(4-(4-methyl-1H-pyrazol-1-yl)pyridin-3-yl)piperidin-4-yl)carbonyl)-L-prolinamide] was 86%.
Take `O=C(NCc1ccccc1)N1CCN(c2cncnc2-c2ccccc2)CC1` [Example 175, N-benzyl-4-(4-phenylpyrimidin-5-yl)piperazine-1-carboxamide]: the inhibition at 1 µM amounted to 95%.
As to `O=C(NC1CCCC1)C1CCN(c2cnccc2-n2cc(Cl)cn2)CC1(F)F` (centres unmarked) [Example 38, 1-(4-(4-chloro-1H-pyrazol-1-yl)pyridin-3-yl)-N-cyclopentyl-3,3-difluoropiperidine-4-carboxamide], the inhibition at 1 µM is 98%.
The value for `O=C(C1CCN(c2cncnc2-c2ccc(F)cc2)CC1)N1CC(F)C1` [Example 278, (3-fluoroazetidin-1-yl)(1-(4-(4-fluorophenyl)pyrimidin-5-yl)piperidin-4-yl)methanone] was 75%.
As for `O=C(OCc1ccccc1)N1CCN(c2cncnc2-c2ccccc2)CC1` [Example 169, benzyl 4-(4-phenylpyrimidin-5-yl)piperazine-1-carboxylate], the inhibition at 1 µM stood at 97%.
`CC(C)C1CCCN1C(=O)C1CCN(c2cnccc2-n2cc(Cl)cn2)CC1` (centres unmarked) [Example 29, (1-(4-(4-chloro-1H-pyrazol-1-yl)pyridin-3-yl)piperidin-4-yl)(2-isopropylpyrrolidin-1-yl)methanone]: the inhibition at 1 µM turned out to be 97%.
Take `O=C(C1CCN(c2cnccc2-c2ccccn2)CC1)N1CC(F)(F)C1` [Example 213, (1-(2,4′-bipyridin-3′-yl)piperidin-4-yl) (3,3-difluoroazetidin-1-yl)methanone]: the inhibition at 1 µM was found to be 93%.
With `CO[C@H]1C[C@H](C#N)N(C(=O)C2CCN(c3cnccc3-n3cc(C)cn3)CC2)C1` [Example 144, (2R,4S)-4-methoxy-1-((1-(4-(4-methyl-1H-pyrazol-1-yl)pyridin-3-yl)piperidin-4-yl)carbonyl)pyrrolidine-2-carbonitrile], the inhibition at 1 µM stood at 98%.
The value for `Cc1nnc(-c2ccncc2N2CCC(C(=O)N3CCC[C@@H]3C#N)CC2)s1` [Example 87, (2R)-1-((1-(4-(5-methyl-1,3,4-thiadiazol-2-yl)pyridin-3-yl)piperidin-4-yl)carbonyl)pyrrolidine-2-carbonitrile] was 98%; that for `Cc1cnn(-c2ccncc2N2CCC(C(=O)N(C)[C@H]3CCOC3)CC2)c1` [Example 305, N-methyl-1-(4-(4-methyl-1H-pyrazol-1-yl)pyridin-3-yl)-N-((3S)-tetrahydrofuran-3-yl)piperidine-4-carboxamide] was 85%.
The value for `O=C(NCc1ccccn1)N1CCN(c2cncnc2-c2ccccc2)CC1` [Example 188, 4-(4-phenylpyrimidin-5-yl)-N-(pyridin-2-ylmethyl)piperazine-1-carboxamide] was 81%; that for `CN1CCC2(CCN(c3cncnc3-c3ccc(F)cc3)CC2)C1=O` [Example 222, 8-(4-(4-fluorophenyl)pyrimidin-5-yl)-2-methyl-2,8-diazaspiro[4.5]decan-1-one] was 92%.
To `CNC(=O)N1CCN(c2cncnc2-c2ccccc2)CC1` [Example 177, N-methyl-4-(4-phenylpyrimidin-5-yl)piperazine-1-carboxamide] belongs 92%; to `Cc1cnn(-c2ccncc2N2CCC(C(=O)N(CCF)[C@H]3CCOC3)CC2)c1` [Example 312, N-(2-fluoroethyl)-1-(4-(4-methyl-1H-pyrazol-1-yl)pyridin-3-yl)-N-((3S)-tetrahydrofuran-3-yl)piperidine-4-carboxamide], 71%.
